One assay concerns blood lymphocyte count. Nature of the assay: Decrease in blood lymphocyte count in normal rats after oral administration. The note with it: 10 mg/kg for the compounds, within 5 hours after drug administration, percentage based on count before administration. It counts as in vivo, rat. Here is the method: In order to confirm the effect of administration of the four compounds selected from Experimental Example 1, Compounds 13, 62, 64, and 66, on the decrease in the blood lymphocyte count in rodents in vivo, blood was collected before and after compound administration, and the decrease in the blood lymphocyte count over time was measured using an automatic blood counter, and the results are shown in FIG. 1.
Specifically, 5-week-old male rats (rat, wister, 160-180 g) were acclimated in a temperature- and humidity-controlled breeding room, and the four selected compounds were dissolved in 5% DMSO and 10% Kolliphor HS15 aqueous solution and orally administered at a dose of 10 mg/kg. Blood was collected from the tail vein with a syringe during inhalation anesthesia with 4% isoflurane and transferred to an EDTA-coated tube. The lymphocyte count was measured from the collected blood using an automatic blood counter. As a positive control group, rats administered with fingolimod, a known S1P1 receptor modulator, were used.
As in the positive control group, fingolimod-administered group, it was confirmed that the group administered with the compounds of the Examples within 5 hours after drug administration induced a decrease in the lymphocyte count by 50% or less.

In assay [1] the target is T1, S1P1 receptor (Homo sapiens, UniProt P21453). The experiment in a line: S1P1 β-arrestin recruitment assay in S1P1 overexpressing cell line (DiscoverX), luminescence. The assay is classed as cell-based. (In general: Activated receptors often draw arrestin, which recruitment assays turn into a signal.)
T1 sequence (P21453 whole entry): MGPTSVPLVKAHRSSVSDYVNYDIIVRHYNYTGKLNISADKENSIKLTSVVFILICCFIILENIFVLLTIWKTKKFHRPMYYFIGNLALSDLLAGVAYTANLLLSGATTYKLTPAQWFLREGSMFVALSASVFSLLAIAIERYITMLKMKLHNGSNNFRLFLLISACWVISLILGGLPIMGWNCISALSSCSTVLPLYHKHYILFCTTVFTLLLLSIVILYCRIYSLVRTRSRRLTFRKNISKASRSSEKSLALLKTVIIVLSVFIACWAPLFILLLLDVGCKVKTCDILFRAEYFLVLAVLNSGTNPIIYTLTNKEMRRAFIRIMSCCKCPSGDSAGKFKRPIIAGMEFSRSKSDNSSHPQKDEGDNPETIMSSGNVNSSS
Assay [2] concerns the target T1, S1P1 receptor. Nature of the assay: S1P1 receptor internalization (endosome formation) assay in S1P1 overexpressing cell line (DiscoverX), luminescence. It counts as cell-based.

Each structure is given as a SMILES string. Where only a bound is given, the exact number is not on record here.

Consider `CCCCCCCCc1ccc(CCC(N)(CO)CO)cc1` [fingolimod], for which the “decrease in the lymphocyte count” value in the assay on blood lymphocyte count is reported as no more than 50%.
As usually defined, the EC50 is the concentration giving half of the maximal effect. For `COC(=O)C1CN(Cc2ccc(-c3cnc(-c4ccc(OC(C)C)c(C#N)c4)[se]3)cc2)C1` [Compound 5], the results for the concentration giving a half-maximal response (EC50) at S1P1 receptor [1] and at S1P1 receptor [2] were 3.64 nM and 0.87 nM, respectively.

The record behind these values is EP4567034A1 (Korea Institute of Science and Technology, priority 2022, dated 2024).
